According to patent US20170052170A1, “NOVEL CELL LINES AND METHODS” (priority 2009, published 2017):

Biological target: T1, sweet taste receptor (human T1R2 and T1R3 subunits, mouse Gα15) (Homo sapiens, UniProt Q7RTX0+Q8TE23, C757R/I191V/I486V/R317G)
T1 construct: expressed in transfected cells; host or cells: HEK293T (ATCC CRL-11268)
T1 sequence (Q8TE23 20-839 I191V/R317G/I486V): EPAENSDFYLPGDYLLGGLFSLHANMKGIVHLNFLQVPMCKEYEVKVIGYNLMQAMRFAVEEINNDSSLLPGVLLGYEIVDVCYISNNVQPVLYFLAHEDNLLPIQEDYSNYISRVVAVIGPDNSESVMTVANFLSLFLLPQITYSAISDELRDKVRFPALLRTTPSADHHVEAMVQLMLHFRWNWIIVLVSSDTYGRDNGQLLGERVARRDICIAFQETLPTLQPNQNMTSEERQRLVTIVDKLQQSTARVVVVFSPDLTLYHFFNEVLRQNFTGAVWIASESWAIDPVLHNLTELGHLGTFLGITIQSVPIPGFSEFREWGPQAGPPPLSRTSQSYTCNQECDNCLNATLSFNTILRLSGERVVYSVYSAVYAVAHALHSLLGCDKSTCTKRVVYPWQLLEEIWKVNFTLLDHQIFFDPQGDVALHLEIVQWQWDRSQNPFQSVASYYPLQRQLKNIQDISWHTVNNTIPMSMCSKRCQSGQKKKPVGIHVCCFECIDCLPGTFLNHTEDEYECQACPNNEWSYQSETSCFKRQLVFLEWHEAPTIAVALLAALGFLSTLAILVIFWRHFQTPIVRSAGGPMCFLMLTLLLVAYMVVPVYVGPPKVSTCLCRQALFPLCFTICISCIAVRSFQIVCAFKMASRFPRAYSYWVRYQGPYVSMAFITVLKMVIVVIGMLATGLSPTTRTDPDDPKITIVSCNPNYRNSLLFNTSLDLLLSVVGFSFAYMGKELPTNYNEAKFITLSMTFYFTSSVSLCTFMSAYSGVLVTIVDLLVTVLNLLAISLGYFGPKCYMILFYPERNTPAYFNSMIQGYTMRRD
T1 sequence (Q7RTX0 21-852 C757R): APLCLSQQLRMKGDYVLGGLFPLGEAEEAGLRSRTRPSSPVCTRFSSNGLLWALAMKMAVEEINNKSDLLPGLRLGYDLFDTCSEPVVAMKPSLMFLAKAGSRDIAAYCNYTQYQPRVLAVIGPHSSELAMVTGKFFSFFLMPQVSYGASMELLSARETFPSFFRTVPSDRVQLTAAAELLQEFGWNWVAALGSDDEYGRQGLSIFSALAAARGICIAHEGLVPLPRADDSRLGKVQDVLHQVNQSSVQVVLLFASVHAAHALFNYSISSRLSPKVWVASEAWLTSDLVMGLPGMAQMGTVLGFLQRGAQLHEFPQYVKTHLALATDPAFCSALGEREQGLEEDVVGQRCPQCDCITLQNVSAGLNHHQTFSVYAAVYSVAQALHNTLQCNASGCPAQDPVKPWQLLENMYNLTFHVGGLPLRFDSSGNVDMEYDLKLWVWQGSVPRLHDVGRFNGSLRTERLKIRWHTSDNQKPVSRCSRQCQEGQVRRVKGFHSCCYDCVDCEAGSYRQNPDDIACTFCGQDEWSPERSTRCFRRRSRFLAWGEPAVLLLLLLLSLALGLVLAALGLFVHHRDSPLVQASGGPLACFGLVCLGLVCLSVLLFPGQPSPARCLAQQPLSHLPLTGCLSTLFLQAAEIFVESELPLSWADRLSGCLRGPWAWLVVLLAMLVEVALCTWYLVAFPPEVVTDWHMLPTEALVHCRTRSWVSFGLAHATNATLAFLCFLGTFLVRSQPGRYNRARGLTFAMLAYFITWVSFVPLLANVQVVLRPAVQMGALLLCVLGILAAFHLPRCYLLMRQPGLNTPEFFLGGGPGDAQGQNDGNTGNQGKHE
Experiment: sweet taste receptor-expressing cell-based assay (calcium flux)
Details: natural, high intensity and artificial sweeteners; FIGS. 23 and 24
Text: FIG. 24 (A-C) is series of line graphs representing the data obtained in various dose response experiments using sweet taste receptor agonists in a sweet taste receptor-expressing cell-based assay (using cells of this invention). (A) The responses of a sweet taste receptor-expressing cell line to natural caloric sweeteners were plotted as a function of the agonist concentration. (B) Dose response curves of common artificial sweeteners in a sweet taste receptor-expressing cell-based assay. (C) Dose response curves of natural high-intensity sweeteners in a sweet taste receptor-expressing cell-based assay.
FIG. 25 is a series of representative response traces generated after performing a sweet taste receptor-expressing cell-based assay using cells of this invention.
To identify a taste receptor modulator (e.g., umami taste receptor modulator or sweet taste receptor modulator), one exposes a cell or cell line of the invention to a test compound under conditions in which the taste receptor (e.g., umami taste receptor or sweet taste receptor) would be expected to be functional and then detects a statistically significant change (e.g., p<0.05) in taste receptor activity (e.g., umami taste receptor activity or sweet taste receptor activity) compared to a suitable control, e.g., cells that are not exposed to the test compound. Positive and/or negative controls using known agonists or antagonists and/or cells expressing different combinations of taste receptor subunits (e.g., umami taste receptor subunits or sweet taste receptor subunits) (and optionally a G protein) may also be used. In some embodiments, the taste receptor activity (e.g., umami taste receptor activity or sweet taste receptor activity) to be detected and/or measured is calcium release from the endoplasmic reticulum as a result of the down stream signaling events following taste receptor activation (e.g., umami taste receptor activation or sweet taste receptor activation). One of ordinary skill in the art would understand that various assay parameters may be optimized, e.g., signal to noise ratio.
See, e.g., FIGS. 23 and 24.

O=C(CO)[C@@H](O)[C@H](O)[C@H](O)CO [fructose]
response of sweet taste receptor cells and cell lines to known classes of sweet compounds: respond
